# Values of other authors, collected in patent publication US8507466B2, “Oils enriched with diacylglycerols and phytosterol esters and unit dosage forms thereof for use in therapy” (Enzymotec Ltd., priority 2003, dated 2013).
# Assays:
# LDL = settings: incubation of LDL with copper ion
# [1] = test system: tumor cell growth (LNCaP and HT-29); settings: compared to cholesterol
SMILES,elevation of LDL oxidation (LDL) [%],decrease in cell growth [1] [%],increase in apoptosis [1] [fold]
"CCCCC/C=C\C/C=C\CCCCCCCC(=O)O [linoleic acid (LA), linoleic acid]",22,,
CC[C@H](CC[C@@H](C)[C@H]1CC[C@H]2[C@@H]3CC=C4C[C@@H](O)CC[C@]4(C)[C@H]3CC[C@]12C)C(C)C [beta-sitosterol],,24,4
